Assays:
Assay in all cases: CTG-3D luminescence at 96 h relative to day-0 seeding control (ratio to day 0); higher = more growth / less cytotoxicity; PDxO 3D drug screen, 96 h, CTG-3D normalised to day-0 seeding control.
HCI-010 = tested on: HCI-010 (organoid from a breast cancer xenograft)
HCI-011.E2 = tested on: HCI-011.E2 (organoid from an ER-positive breast cancer xenograft)
MDA-MB-231 = tested on: MDA-MB-231
HCI-012 = tested on: HCI-012 (organoid from a breast cancer xenograft)
HCI-027 = tested on: HCI-027 (organoid from a triple-negative breast cancer xenograft)
HCI-001 = tested on: HCI-001 (organoid from a triple-negative breast cancer xenograft)

CC(C)(C(=O)NCC(F)(F)C(F)(F)F)C(=O)N[C@@H]1C(=O)Nc2ccccc2-c2ccccc21
CTG-3D luminescence at 96 h
Conditions | 12.5 pM | 0.00025 µM | 0.005 µM | 0.1 µM | 1 µM | 10 µM | 100 µM | 625 fM
HCI-001, days in culture: 240 | 1.46 | 1.17 | 0.87 | 0.976 | 1.16 | 0.943 | 1.23 | 1.67
HCI-001, days in culture: 260 | 2.5 | 1.03 | 1.58 | 1.23 | 1.44 | 1.29 | 1.15 | 2.09
HCI-001, days in culture: 269 | 1.46 | 1.61 | 1.38 | 1.81 | 1.67 | 2.38 | 1.78 | 1.58
HCI-001, days in culture: 327 | 1.38 | 1.27 | 1.54 | 1.77 | 1.29 | 1.04 | 1.38 | 1.83
HCI-001, days in culture: 346 | 1.54 | 1.31 | 1.17 | 1.11 | 1.26 | 1.31 | 1.57 | 1.29
HCI-001, days in culture: 364 | 1.49 | 1.25 | 1.38 | 1.09 | 1.14 | 1.29 | 0.937 | 1.4
HCI-010, days in culture: 52 | 2.08 | 1.91 | 2.38 | 2.13 | 1.86 | 1.9 | 1.24 | 2.2
HCI-010, days in culture: 65 | 1.59 | 1.67 | 1.85 | 1.82 | 1.7 | 1.58 | 0.419 | 1.79
HCI-010, days in culture: 103 | 2.86 | 2.96 | 2.93 | 2.95 | 2.98 | 2.72 | 2.02 | 3.05
HCI-011.E2, days in culture: 74 | 2.34 | 1.83 | 1.89 | 1.8 | 1.57 | 2.5 | 1.76 | 1.73
HCI-012, days in culture: 143 | 1.62 | 1.71 | 1.71 | 2.2 | 2.22 | 2.41 | 1.37 | 1.72
HCI-012, days in culture: 162 | 2.77 | 1.65 | 1.36 | 2.46 | 1.82 | 2.59 | 1.53 | 3.16
HCI-012, days in culture: 201 | 2.67 | 2.23 | 1.91 | 1.9 | 2.48 | 1.51 | 2.23 | 1.61
HCI-027, days in culture: 176 | 2.35 | 1.45 | 1.79 | 0.289 | 0.192 | 0.176 | 0.165 | 1.96
HCI-027, days in culture: 194 | 1.64 | 1.41 | 1.38 | 0.35 | 0.281 | 0.486 | 0.484 | 1.55
HCI-027, days in culture: 201 | 2.24 | 1.62 | 1.57 | 0.358 | 0.288 | 0.407 | 0.247 | 1.99

CTG-3D luminescence at 96 h
Conditions | 12.5 pM | 0.00025 µM | 0.005 µM | 0.1 µM | 1 µM | 10 µM | 100 µM | 625 fM
HCI-011.E2 | 1.55 | 1.61 | 1.49 | 1.97 | 1.71 | 2.01 | 1.76 | 1.94
MDA-MB-231 | 4.58 | 4.53 | 4.6 | 4.48 | 4.6 | 4.7 | 4.04 | 4.6

CCN(c1cc(C#CCN2CCOCC2)cc(C(=O)NCc2c(C)cc(C)[nH]c2=O)c1C)[C@H]1CC[C@H](N(C)CCOC)CC1
CTG-3D luminescence at 96 h
Conditions | 12.5 pM | 0.00025 µM | 0.005 µM | 0.1 µM | 1 µM | 10 µM | 100 µM | 625 fM
HCI-001, days in culture: 240 | 1.66 | 1.2 | 1.34 | 1.12 | 1.48 | 1.35 | 1.6 | 1.15
HCI-001, days in culture: 260 | 2.3 | 1.19 | 2.11 | 1.83 | 1.85 | 1.89 | 1.19 | 1.77
HCI-001, days in culture: 269 | 1.6 | 1.57 | 1.22 | 1.27 | 1.24 | 1.91 | 1.29 | 1.58
HCI-001, days in culture: 327 | 2.1 | 1.96 | 2.09 | 1.94 | 1.79 | 1.53 | 2.14 | 2.05
HCI-001, days in culture: 346 | 1.71 | 1.33 | 1.21 | 1.4 | 1.5 | 1.62 | 1 | 1.32
HCI-001, days in culture: 364 | 1.74 | 1.34 | 1.76 | 1.19 | 1.17 | 1.85 | 1.41 | 1.88
HCI-010, days in culture: 52 | 1.83 | 2.5 | 2.34 | 2.47 | 2.48 | 2.29 | 1.5 | 2.03
HCI-010, days in culture: 65 | 1.6 | 1.76 | 1.72 | 1.49 | 1.78 | 1.58 | 1.05 | 1.8
HCI-010, days in culture: 103 | 3.17 | 3.22 | 3.07 | 3.35 | 3.09 | 2.84 | 1.88 | 2.7
HCI-011.E2, days in culture: 74 | 1.76 | 2.24 | 2.14 | 1.77 | 1.99 | 3.31 | 2.8 | 1.61
HCI-012, days in culture: 143 | 1.91 | 2.56 | 2.37 | 2.99 | 3.02 | 3.17 | 0.606 | 1.86
HCI-012, days in culture: 162 | 2.51 | 2.39 | 1.97 | 2.73 | 2.39 | 3.19 | 1.69 | 2.39
HCI-012, days in culture: 201 | 2.85 | 2.09 | 1.92 | 2.18 | 2.33 | 1.83 | 2.37 | 1.64
HCI-027, days in culture: 176 | 2.06 | 2.13 | 3.35 | 1.65 | 1.87 | 2.06 | 1.32 | 2.38
HCI-027, days in culture: 194 | 2.66 | 1.86 | 2.09 | 2.1 | 2.03 | 2.21 | 2.02 | 1.98
HCI-027, days in culture: 201 | 3.28 | 3.2 | 2.92 | 2.89 | 3.09 | 2.64 | 2.22 | 2.42

CTG-3D luminescence at 96 h
Conditions | 12.5 pM | 0.00025 µM | 0.005 µM | 0.1 µM | 1 µM | 10 µM | 100 µM | 625 fM
HCI-011.E2 | 1.4 | 1.39 | 1.48 | 1.74 | 1.74 | 2.09 | 2.03 | 1.63
MDA-MB-231 | 4.49 | 4.37 | 4.44 | 4.29 | 4.31 | 4.37 | 4.39 | 4.51

NC(=O)Nc1cc(-c2cccc(F)c2)sc1C(=O)N[C@H]1CCCNC1 [AZD7762]
CTG-3D luminescence at 96 h
Conditions | 12.5 pM | 0.00025 µM | 0.005 µM | 0.1 µM | 1 µM | 10 µM | 100 µM | 625 fM
HCI-001, days in culture: 240 | 1.67 | 0.879 | 1.07 | 1 | 0.663 | 0.189 | 0.00603 | 1.14
HCI-001, days in culture: 260 | 1.93 | 1.02 | 1.44 | 0.935 | 0.787 | 0.243 | 0.00469 | 1.07
HCI-001, days in culture: 269 | 1.68 | 1.84 | 1.41 | 1.25 | 0.48 | 0.388 | -0.00671 | 1.59
HCI-001, days in culture: 327 | 1.38 | 1.77 | 1.85 | 1.38 | 0.567 | 0.168 | 0.00741 | 1.6
HCI-001, days in culture: 346 | 1.38 | 1.49 | 1.23 | 0.907 | 0.392 | 0.184 | 0.0108 | 1.21
HCI-001, days in culture: 364 | 1.53 | 1.16 | 1.51 | 1.03 | 0.466 | 0.201 | 0.00492 | 1.71
HCI-010, days in culture: 52 | 2.15 | 2.42 | 2.03 | 0.844 | 0.355 | 0.327 | -0.0157 | 2.28
HCI-010, days in culture: 65 | 1.69 | 1.62 | 1.42 | 0.742 | 0.378 | 0.219 | 0.00203 | 1.65
HCI-010, days in culture: 103 | 3.16 | 3.35 | 3.16 | 1.23 | 0.651 | 0.537 | 0.0021 | 3.22
HCI-011.E2, days in culture: 74 | 2.04 | 2.16 | 1.88 | 1.68 | 1.62 | 1.33 | 0.00724 | 1.92
HCI-012, days in culture: 143 | 2.11 | 2.03 | 2.04 | 2.67 | 1.75 | 0.0896 | 0.000673 | 1.69
HCI-012, days in culture: 162 | 2.58 | 2.41 | 1.89 | 2.83 | 1.99 | 0.16 | -5.12e-05 | 3.15
HCI-012, days in culture: 201 | 2.51 | 2.18 | 1.69 | 1.39 | 2.14 | 0.141 | 0.00358 | 1.9
HCI-027, days in culture: 176 | 1.95 | 1.34 | 2.55 | 0.208 | 0.0981 | 0.0356 | -0.00164 | 2.05
HCI-027, days in culture: 194 | 1.41 | 1.22 | 1.34 | 0.159 | 0.0911 | 0.0685 | -0.00154 | 1.61
HCI-027, days in culture: 201 | 1.43 | 2.16 | 2.35 | 0.166 | 0.0767 | 0.078 | -1.51e-05 | 1.6

CTG-3D luminescence at 96 h
Conditions | 12.5 pM | 0.00025 µM | 0.005 µM | 0.1 µM | 1 µM | 10 µM | 100 µM | 625 fM
HCI-011.E2 | 1.57 | 1.86 | 1.56 | 1.77 | 1.66 | 1.32 | 0.00993 | 1.71
MDA-MB-231 | 4.48 | 4.32 | 4.52 | 3.96 | 1.4 | 0.628 | 0.0187 | 4.49
